Assays:
[1] = cited from earlier work
[2] = tested on: pEGFR, pAkt, pErk½ signaling in H508 cells; experiment: Western blot of pEGFR, pAkt, pErk½ signaling, 2 hour incubation, H508 cells; format: cell-based; conditions: 2 hour incubation with EGF, FIG. 20
[3] = patients taking Alpelisib; cited from earlier work

## COC(=O)N[C@@H](C)CNc1nccc(-c2cn(C(C)C)nc2-c2cc(Cl)cc(NS(C)(=O)=O)c2F)n1 [Encorafenib, methyl N-[(2S)-1-[[4-[3-[5-chloro-2-fluoro-3-(methanesulfonamido)phenyl]-1-propan-2-ylpyrazol-4-yl]pyrimidin-2-yl]amino]propan-2-yl]carbamate]
[1]; after oral administration
  median Tmax: 2 h
[1]; oral administration
  dose absorbed: At least 86%

## CC(=O)Nc1cccc(-n2c(=O)n(C3CC3)c(=O)c3c(Nc4ccc(I)cc4F)n(C)c(=O)c(C)c32)c1 [Trametinib, N-[3-[3-cyclopropyl-5-(2-fluoro-4-iodoanilino)-6,8-dimethyl-2,4,7-trioxopyrido[4,3-d]pyrimidin-1-yl]phenyl]acetamide]
[1]; human, in vivo
  Elimination half-life: 93.6 to 115 h
[1]; oral administration, patients with BRAF V600 mutation-positive melanoma
  peak plasma concentration occurred post-dose (Tmax): 1.5 h
[1]; single 2 mg oral dose
  bioavailability: 72%

## Cc1nc(NC(=O)N2CCC[C@H]2C(N)=O)sc1-c1ccnc(C(C)(C)C(F)(F)F)c1 [Alpelisib, (2S)-1-N-[4-methyl-5-[2-(1,1,1-trifluoro-2-methylpropan-2-yl)pyridin-4-yl]-1,3-thiazol-2-yl]pyrrolidine-1,2-dicarboxamide]
[2]
  pAkt: inhibit pAkt
  pEGFR or pErk½ signaling: do not affect
[3]
  dose dependent benefit from treatment: advantage of 300 mg once daily over 150 mg twice daily: 22%
  dose dependent benefit from treatment: advantage of a 200 mg daily dose over a 100 mg dose: 51%

From patent US12636376B2, “Methods and compositions for use of growth factor antibodies in combination with non-tyrosine targeting kinase inhibitors” (In3Bio Ltd., priority 2019, dated 2026)
